Experimental data from BindingDB's records for doi:10.3109/14756366.2011.614607 (Ondokuz Mayis University, 2012).

Legend:
Assay in all cases: CA Activity Assay
Details in all cases: pH 7.4; 25 °C
Carbonic anhydrase 1 = Carbonic anhydrase 1 (Homo sapiens, UniProt P00915)
Description: (§1) The enzymatic reaction, in a total volume of 3.0 mL, contained 1.4 mL 0.05M Tris-SO4 buffer (pH 7.4), 1mL 3 mM 4-nitrophenylacetate, 0.5 mL H2O and 0.1mL enzyme solution. A reference measurement was obtained by preparing the same cuvette without enzyme solution. The inhibitory effects of the sulphonamide derivatives were examined. All compounds were tested in triplicate at each concentration used. Different concentrations of the compounds were used.

Carbonic anhydrase 2 = Carbonic anhydrase 2 (Homo sapiens, UniProt P00918)
Description: as §1

Carbonic anhydrase 6 = Carbonic anhydrase 6 (Homo sapiens, UniProt P23280)
Description: as §1

Carbonic anhydrase 6, sequence (P23280 whole entry): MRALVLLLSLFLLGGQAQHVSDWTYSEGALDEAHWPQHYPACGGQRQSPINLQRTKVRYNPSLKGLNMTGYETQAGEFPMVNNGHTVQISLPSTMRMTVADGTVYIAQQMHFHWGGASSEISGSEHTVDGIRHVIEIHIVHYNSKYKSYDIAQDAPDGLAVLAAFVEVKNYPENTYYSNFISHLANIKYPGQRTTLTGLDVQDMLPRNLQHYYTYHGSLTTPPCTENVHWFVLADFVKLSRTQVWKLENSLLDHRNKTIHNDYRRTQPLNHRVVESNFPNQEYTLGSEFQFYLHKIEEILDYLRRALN
Carbonic anhydrase 1, sequence (P00915 whole entry): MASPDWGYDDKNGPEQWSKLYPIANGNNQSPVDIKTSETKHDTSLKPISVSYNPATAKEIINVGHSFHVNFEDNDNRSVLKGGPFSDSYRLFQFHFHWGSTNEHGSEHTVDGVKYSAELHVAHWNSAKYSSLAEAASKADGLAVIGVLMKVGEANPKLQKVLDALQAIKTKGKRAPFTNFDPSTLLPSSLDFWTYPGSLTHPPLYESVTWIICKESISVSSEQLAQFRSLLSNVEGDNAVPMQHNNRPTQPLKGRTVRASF

SMILES	Ki (Carbonic anhydrase 1) [µM]	Ki (Carbonic anhydrase 2) [nM]	Ki (Carbonic anhydrase 6) [nM]
NS(=O)(=O)c1ccccc1	–	–	4110
Cc1ccc(S(N)(=O)=O)cc1	118	–	21200
Nc1ccc(S(N)(=O)=O)cc1 [aromatic sulfonamide compound 5]	–	–	1210

Other lines, results leading:

Ki (Carbonic anhydrase 1) [µM]	Ki (Carbonic anhydrase 2) [nM]	Ki (Carbonic anhydrase 6) [nM]	SMILES
13.7	228	943	CCOC1Oc2ccccc2C(=O)/C1=C\Nc1ccc(S(N)(=O)=O)cc1 (centres undefined) [hCA inhibitor, 1]
48.1	1130	2240	CCOC1Oc2c(Br)cccc2C(=O)/C1=C\Nc1ccc(S(N)(=O)=O)cc1 (centres undefined) [hCA inhibitor, 3]
–	–	1010	NCc1ccc(S(N)(=O)=O)cc1 [aromatic sulfonamide compound 6]
71.2	1860	4280	CCOC1Oc2c(Br)cc(Br)cc2C(=O)/C1=C\Nc1ccc(S(N)(=O)=O)cc1 (centres undefined) [hCA inhibitor, 4]
